The source of these data is patent publication US11020457B2, “Compositions and methods for protecting the kidney from ischemia reperfusion injury” (University of Virginia Patent Foundation, priority 2013, dated 2021).

Entries after “also recorded” stand apart in the source; their conditions may differ.

Common to all, as to assay type: in vivo
In experiment [1] the test system is C57BL/6 mice. Kind of experiment: Renal IRI in WT mice: splenic ferroportin (immunofluorescence) and splenic H-Ferritin (Western blot). Conditions: for splenic H-Ferritin: WT hepcidin IRI vs IRI and vs Sham, p<0.05, FIG. 9b. As to the method:
All experiments were performed in accordance with the National Institutes of Health and Institutional Animal Care and Use Guidelines. The Animal Care and Use Committee of the University of Virginia approved all procedures and protocols. C57BL/6 mice from the Jackson Laboratory and hepcidin knockout mice (HAMP−/−), a kind gift from Dr Cindy Roy (John Hopkins University) were used in this study. All experiments were performed on 8-10 weeks old male mice. Kidney ischemia-reperfusion surgery was performed as previously reported (44). The core temperature of the mice was maintained between 34° C. and 36° C. using a heating pad. After anesthetizing the mice (ketamine, 12 mg/ml; atropine, 0.48 mg/ml; xylazine, 24 mg/ml; […] mixture administered per 20 g body weight), bilateral flank incisions were made, both renal pedicles were exposed, and cross-clamped for 26 minutes (severe I/R injury) or 24 minutes (mild I/R injury). After the determined ischemia, clamps were removed, and kidneys were allowed to reperfuse for 24 hours. Ambient postoperative air temperature was maintained between 30° C. and 32° C. until mice had fully recovered. Sham-operated animals underwent bilateral flank incisions without clamping of renal pedicles. Twenty-four hours later, mice were euthanized, and tissues were harvested. […]
Snap frozen tissue sections were homogenized in Tris-Triton tissue lysis buffer containing complete protease inhibitor cocktail using a Dounce Homogenizer. […] H-Ferritin was measured in the whole kidney and spleen lysates. […] The primary antibodies were detected with Donkey anti-goat Alexa 800 and goat anti-rabbit Alexa 800 antibodies (LiCor Bioscience). Mouse monoclonal GAPDH and β-Actin (Abcam) were used as the loading controls and detected using Donkey anti Mouse Alexa 680 antibody (LiCor Bioscience). Quantitation of data was performed using densitometry software (Licor Bioscience).
(In general: A western blot detects proteins with antibodies after separation by electrophoresis.)

Experiment [2] can be described thus: Proteinuria (data not shown).
The test system of experiment [3] is C57BL/6 mice. As to the kind of experiment: Renal IRI in WT mice: plasma creatinine, H&E histology, NGAL. As to the method:
(§1) All experiments were performed in accordance with the National Institutes of Health and Institutional Animal Care and Use Guidelines. The Animal Care and Use Committee of the University of Virginia approved all procedures and protocols. C57BL/6 mice from the Jackson Laboratory and hepcidin knockout mice (HAMP−/−), a kind gift from Dr Cindy Roy (John Hopkins University) were used in this study. All experiments were performed on 8-10 weeks old male mice. Kidney ischemia-reperfusion surgery was performed as previously reported (44). The core temperature of the mice was maintained between 34° C. and 36° C. using a heating pad. After anesthetizing the mice (ketamine, 12 mg/ml; atropine, 0.48 mg/ml; xylazine, 24 mg/ml; […] mixture administered per 20 g body weight), bilateral flank incisions were made, both renal pedicles were exposed, and cross-clamped for 26 minutes (severe I/R injury) or 24 minutes (mild I/R injury). After the determined ischemia, clamps were removed, and kidneys were allowed to reperfuse for 24 hours. Ambient postoperative air temperature was maintained between 30° C. and 32° C. until mice had fully recovered. Sham-operated animals underwent bilateral flank incisions without clamping of renal pedicles. Twenty-four hours later, mice were euthanized, and tissues were harvested.
(§2) Animals were divided into three groups, injected intraperitoneally with water and underwent IRI (IRI), injected intraperitoneally with 50-100 μg hepcidin at different time points prior to IRI (Hepcidin-IRI) or were sham operated (Sham). The experimental design is depicted in FIG. 2a.
Renal function was determined by measurement of plasma creatinine, determined using a modified Jaffe colorimetric assay (44).
Kidneys were fixed in buffered formalin for 48 h, embedded in paraffin, sectioned (3-μm thickness), and stained with hematoxylin and eosin (H&E). The extent of acute tubular necrosis (ATN) following IRI was assessed using H&E stained kidney sections. An investigator blinded to the sample identities was used for these analyses to have an unbiased approach.
(§3) For RNA isolation, frozen tissues were re-suspended in RLT buffer (Qiagen Inc, Valencia, Calif.) and homogenized using TissueLyser system (Qiagen Inc, Valencia, Calif.). Total RNA from tissue homogenate was purified using RNAeasy mini kit (Qiagen Inc, Valencia, Calif.) following manufacturers instructions. 1 μg of RNA was used to synthesize cDNA using the iScript cDNA synthesis kit (Bio-Rad). The cDNA template was mixed with iTAQ SYBR green universal super mix (Bio-Rad) and quantitative PCR was carried out on CFX Connect system (Bio-Rad). Predesigned primers for Caspase-3 and Bcl-2 were purchased from Bio-rad. Glyceraldehyde-3-phosphate dehydrogenase (GAPDH) was amplified in parallel and used as the reference gene in quantification. Data is expressed as the relative gene expression and was calculated using the 2 (−ρρC(T)) method.

In experiment [4] the test system is C57BL/6 mice. As to the kind of experiment: Renal IRI in WT mice: serum iron (ELISA), tissue non-heme iron, liver and serum hepcidin. As to the method:
as §1, §2
Serum iron (Abcam), hepcidin (Intrinsic Lifescience) and IL-6 levels (eBioscience) were measured using commercial ELISA kits, as per manufacturers instructions.
Non-heme iron content in tissue was measured using the method described in published literature with slight modifications (60). Briefly, tissues were accurately weighed, finely cut and placed for 20 hours at 65° C. in a solution of 3M HCl/0.61 M trichloroacetic acid. After cooling to room temperature, the acid extract was spun at 12,000 rpm to collect the supernatant. 0.1 mL of the supernatant was incubated with chromogen solution (1.86 mM bathophenanthroline sulfonate/143 mM thioglycollic acid) for 20 minutes, and OD was measured at 535 nm. A standard curve was generated using an iron standard solution (Ricca Iron AA standard) against water as the blank. Non-heme iron content (μg/g) was calculated using the equation described (60).
as §3
On the technique in general: An ELISA detects its analyte on a solid surface through an enzyme-linked reagent.

As to “Mouse hepcidin 25 (DTNFPICIFCCKCCNNSQCGICCKT; listed as Mus musculus)”, the “splenic H-Ferritin” value is “increased splenic H-Ferritin levels” in the experiment on C57BL/6 mice [1]; “significantly higher H-Ferritin compared to both untreated IRI mice and sham controls” in the experiment with C57BL/6 mice [1] (listed as hepcidin). For the same substance, the splenic ferroportin expression entry in the experiment on C57BL/6 mice [1] (hepcidin treatment, renal IRI, FIG. 9a bottom panel) is “dramatic decrease in surface expression of ferroportin; also recorded: degradation of ferroportin”. For the same substance, the proteinuria result in experiment [2] is “reducing proteinuria”. Further, the “plasma creatinine, comparison of doses” value in the experiment with C57BL/6 mice [3] (50 versus 100 μg hepcidin, 24 hours before IRI) is recorded as “no significant differences in plasma creatinine”. For the same substance, the “kidney NGAL expression” value in the experiment with C57BL/6 mice [3] (IRI Vs Hepcidin-IRI, p<0.001) is reported as “significantly lower expression of NGAL”. For the same substance, the “renal architecture / tubular necrosis (H&E)” value with C57BL/6 mice [3] (hepcidin 50 μg 24 hours before IRI, FIG. 2e) was “fewer necrotic tubules and luminal debris”. Besides, the plasma creatinine result is “significantly reduced plasma creatinine levels” with C57BL/6 mice [3] (hepcidin 50 μg injected 2 hours prior to IRI, p<0.001 vs untreated IRI); “significantly reduced plasma creatinine levels” with C57BL/6 mice [3] (hepcidin 50 μg injected 8 hours prior to IRI, p<0.001 vs untreated IRI); “significantly lowered plasma creatinine levels; also recorded: maximum protection” in the experiment on C57BL/6 mice [3] (single bolus of 50 or 100 μg hepcidin intraperitoneally, 24 hours before IRI, measured 24 hours after IRI, p<0.0001). For the same substance, the “liver hepcidin gene expression” value in the experiment with C57BL/6 mice [4] (hepcidin before IRI, IRI Vs. Hepcidin-IRI p<0.005, FIG. 1e) is reported as “significantly prevented the IRI-induced upregulation of hepcidin”. In the experiment on C57BL/6 mice [4] (hepcidin before IRI, vs IRI p<0.0001), the “liver non-heme iron levels” value is given as “effectively prevented IRI-induced depletion of liver non-heme iron”. In addition, in the experiment on C57BL/6 mice [4] (hepcidin before IRI, vs IRI p<0.001, vs sham p<0.05), the “splenic non-heme iron content” value is reported as “significantly higher splenic non-heme iron content than IRI or sham groups”. Moreover, the “kidney non-heme iron content” value with C57BL/6 mice [4] (hepcidin before IRI, vs IRI, p<0.05, FIG. 1b) was “significantly prevented IRI-induced kidney iron accumulation”. Moreover, the serum iron levels result in the experiment on C57BL/6 mice [4] (hepcidin i.p. before IRI, vs untreated IRI, p<0.001, FIG. 1a) is reported as “significantly reduced IRI-induced increase in serum iron levels”. In addition, the serum hepcidin levels entry with C57BL/6 mice [4] (hepcidin-treated IRI vs sham, FIG. 1f) was “not significantly different between hepcidin-treated and sham groups”.
